Test system: HEK293T cells carrying the ATF4 luciferase reporter
Experiment: ATF4-Luc assay, in vitro model of Vanishing Cell White Matter Disease (VWMD)
Type: cell-based
Conditions: Homo sapiens, HEK-293T, 1 μg/mL tunicamycin, 7 hours, One Glo luminescence
Summary of the method: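 Stable HEK293T line with human ATF4 5′-UTR–firefly luciferase reporter treated with 1 μg/mL tunicamycin plus 200 nM compound for 7 h. Luminescence read; EC50 derived.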

Compound	EC50 [nM]
O=C(COc1ccc(C(F)(F)F)nc1)NC12CC(Nc3ccnc4cc(Cl)ccc34)(C1)C2 [Compound 385, N-{3-[(7-chloroquinolin-4-yl)amino]bicyclo[1.1.1]pentan-1-yl}-2-{[6-(trifluoromethyl)pyridin-3-yl]oxy}acetamide]	250 to 1000
O=C(COc1ccc(Cl)c(F)c1)NC12CC(NC(=O)c3onc4c3CCCC4)(C1)C2 [Compound 854, N-{3-[2-(4-chloro-3-fluorophenoxy)acetamido]bicyclo[1.1.1]pentan-1-yl}-4,5,6,7-tetrahydro-2,1-benzoxazole-3-carboxamide]	> 2000
O=C(COc1ccc(Cl)c(F)c1)NC12CCC(NC(=O)c3csc(C(F)(F)F)n3)(CC1)CC2O (centres unmarked) [Compound 466, N-{4-[2-(4-chloro-3-fluorophenoxy)acetamido]-3-hydroxybicyclo[2.2.2]octan-1-yl}-2-(trifluoromethyl)-1,3-thiazole-4-carboxamide]	< 50
Cc1cc(C(=O)NC23CC(NC(=O)COc4ccc(Cl)c(Cl)c4)(C2)C3)cnc1C [Compound 693, N-{3-[2-(3,4-dichlorophenoxy)acetamido]bicyclo[1.1.1]pentan-1-yl}-5,6-dimethylpyridine-3-carboxamide]	250 to 1000
O=C(COc1ccc2c(c1)OC(F)(F)O2)NC12CC(NC(=O)c3cccnc3)(C1)C2 [Compound 457, N-(3-{2-[(2,2-difluoro-2H-1,3-benzodioxol-5-yl)oxy]acetamido}bicyclo[1.1.1]pentan-1-yl)pyridine-3-carboxamide]	250 to 1000
O=C(COc1ccc(Cl)c(F)c1)NC12CC(Nc3nccc(-c4ccc(Cl)cc4)n3)(C1)C2 [Compound 370, 2-(4-chloro-3-fluorophenoxy)-N-(3-{[4-(4-chlorophenyl)pyrimidin-2-yl]amino}bicyclo[1.1.1]pentan-1-yl)acetamide]	< 50
O=C(COc1ccc(Cl)c(F)c1)NC12CC(NC(=O)c3ncc(C(F)F)s3)(C1)C2 [Compound 425, N-{3-[2-(4-chloro-3-fluorophenoxy)acetamido]bicyclo[1.1.1]pentan-1-yl}-5-(difluoromethyl)-1,3-thiazole-2-carboxamide]	250 to 1000
O=C(COc1ccc(Cl)c(F)c1)NC12CCC(NC(=O)c3ccc(OC(F)(F)F)nc3)(CC1)CC2O (centres unmarked) [Compound 451, N-{4-[2-(4-chloro-3-fluorophenoxy)acetamido]-3-hydroxybicyclo[2.2.2]octan-1-yl}-6-(trifluoromethoxy)pyridine-3-carboxamide]	< 50
O=C(COc1ccc(Cl)c(F)c1)NC12CCC(NC(=O)c3cnn4ccccc34)(CC1)CC2O (centres unmarked) [Compound 596, N-{4-[2-(4-chloro-3-fluorophenoxy)acetamido]-3-hydroxybicyclo[2.2.2]octan-1-yl}pyrazolo[1,5-a]pyridine-3-carboxamide]	250 to 1000
CC(C)(C)c1cc(C(=O)NC23CCC(NC(=O)COc4ccc(Cl)c(F)c4)(CC2)[C@@H](O)C3)on1 [Compound 581, 3-tert-butyl-N-{(3S)-4-[2-(4-chloro-3-fluorophenoxy)acetamido]-3-hydroxybicyclo[2.2.2]octan-1-yl}-1,2-oxazole-5-carboxamide]	< 50
CN(C)c1ccc(C(=O)NC23CC(NC(=O)COc4ccc(Cl)c(F)c4)(C2)C3)cc1 [Compound 536, N-{3-[2-(4-chloro-3-fluorophenoxy)acetamido]bicyclo[1.1.1]pentan-1-yl}-4-(dimethylamino)benzamide]	250 to 1000
O=C(COc1ccc(Cl)c(F)c1)NC12CC(NC(=O)c3csc(-c4ccccc4)n3)(C1)C2 [Compound 339, N-{3-[2-(4-chloro-3-fluorophenoxy)acetamido]bicyclo[1.1.1]pentan-1-yl}-2-phenyl-1,3-thiazole-4-carboxamide]	< 50
O=C(COc1ccc(Cl)c(F)c1)NC12CC(NC(=O)c3ccc(C(F)(F)F)nc3)(C1)C2 [Compound 203, N-{3-[2-(4-chloro-3-fluorophenoxy)acetamido]bicyclo[1.1.1]pentan-1-yl}-6-(trifluoromethyl)pyridine-3-carboxamide]	1000 to 2000
Cc1nnc(C(=O)NC23CCC(NC(=O)COc4ccc(Cl)c(F)c4)(CC2)C(O)C3)o1 (centres unmarked) [Compound 516, N-{4-[2-(4-chloro-3-fluorophenoxy)acetamido]-3-hydroxybicyclo[2.2.2]octan-1-yl}-5-methyl-1,3,4-oxadiazole-2-carboxamide]	1000 to 2000
O=C(COc1ccc(Cl)c(F)c1)NC12CC(NC(=O)c3ccc4oc(=O)ccc4c3)(C1)C2 [Compound 396, N-{3-[2-(4-chloro-3-fluorophenoxy)acetamido]bicyclo[1.1.1]pentan-1-yl}-2-oxo-2H-1-benzopyran-6-carboxamide]	250 to 1000
Cc1cnc(C(=O)NC23CCC(NC(=O)COc4ccc(Cl)c(F)c4)(CC2)C(O)C3)c(C)n1 (centres unmarked) [Compound 286, N-{4-[2-(4-chloro-3-fluorophenoxy)acetamido]-3-hydroxybicyclo[2.2.2]octan-1-yl}-3,5-dimethylpyrazine-2-carboxamide]	250 to 1000

Compound	EC50 [nM]
CCc1cc(C(=O)NC23CCC(NC(=O)COc4ccc(Cl)c(F)c4)(C2)C3)n(C)n1 [Compound 571, N-{4-[2-(4-chloro-3-fluorophenoxy)acetamido]bicyclo[2.1.1]hexan-1-yl}-3-ethyl-1-methyl-1H-pyrazole-5-carboxamide]	250 to 1000
CC(C)(O)CCc1ccnc(C(=O)NC23CC(NC(=O)COc4ccc(Cl)c(Cl)c4)(C2)C3)c1 [Compound 433, N-{3-[2-(3,4-dichlorophenoxy)acetamido]bicyclo[1.1.1]pentan-1-yl}-4-(3-hydroxy-3-methylbutyl)pyridine-2-carboxamide]	> 2000
NCc1ccnc(C(=O)NC23CC(NC(=O)COc4ccc(Cl)c(Cl)c4)(C2)C3)c1 [Compound 615, 4-(aminomethyl)-N-{3-[2-(3,4-dichlorophenoxy)acetamido]bicyclo[1.1.1]pentan-1-yl}pyridine-2-carboxamide]	50 to 250
O=C(COc1ccc(C(F)F)c(F)c1)NC12CC(NC(=O)c3cnc(C(F)F)cn3)(C1)C2 [Compound 475, 5-(difluoromethyl)-N-(3-{2-[4-(difluoromethyl)-3-fluorophenoxy]acetamido}bicyclo[1.1.1]pentan-1-yl)pyrazine-2-carboxamide]	50 to 250
O=C(COc1ccc(Cl)c(F)c1)NC12CCC(NC(=O)c3cccc(CO)n3)(CC1)CC2O (centres unmarked) [Compound 945, N-{4-[2-(4-chloro-3-fluorophenoxy)acetamido]-3-hydroxybicyclo[2.2.2]octan-1-yl}-6-(hydroxymethyl)pyridine-2-carboxamide]	> 2000
Cc1nc(C(=O)NC23CCC(NC(=O)COc4ccc(Cl)c(F)c4)(CC2)C(O)C3)n[nH]1 (centres unmarked) [Compound 487, N-{4-[2-(4-chloro-3-fluorophenoxy)acetamido]-3-hydroxybicyclo[2.2.2]octan-1-yl}-5-methyl-1H-1,2,4-triazole-3-carboxamide]	< 50
O=C(COc1ccc(Cl)c(F)c1)NC12CC(NC(=O)c3noc4c3CCCC4)(C1)C2 [Compound 880, N-{3-[2-(4-chloro-3-fluorophenoxy)acetamido]bicyclo[1.1.1]pentan-1-yl}-4,5,6,7-tetrahydro-1,2-benzoxazole-3-carboxamide]	> 2000
Cc1cnc(C(=O)NC23CCC(NC(=O)COc4ccc(Cl)c(F)c4)(CC2)[C@@H](O)C3)cn1 [Compound 666, N-{(3S)-4-[2-(4-chloro-3-fluorophenoxy)acetamido]-3-hydroxybicyclo[2.2.2]octan-1-yl}-5-methylpyrazine-2-carboxamide]	< 50
O=C(COc1ccc(Cl)c(F)c1)NC12CC(NC(=O)c3cc(N4CC(F)(F)C4)ccn3)(C1)C2 [Compound 189, N-{3-[2-(4-chloro-3-fluorophenoxy)acetamido]bicyclo[1.1.1]pentan-1-yl}-4-(3,3-difluoroazetidin-1-yl)pyridine-2-carboxamide]	250 to 1000
O=C(COc1ccc(Cl)c(F)c1)NC12CC(NC(=O)c3ccc(/C=C/C4CC4)cn3)(C1)C2 [Compound 283, N-{3-[2-(4-chloro-3-fluorophenoxy)acetamido]bicyclo[1.1.1]pentan-1-yl}-5-[(E)-2-cyclopropylethenyl]pyridine-2-carboxamide]	< 50
O=C(COc1ccc(Cl)c(F)c1)NC12CC(NC(=O)c3nc4ccccc4o3)(C1)C2 [Compound 347, N-{3-[2-(4-chloro-3-fluorophenoxy)acetamido]bicyclo[1.1.1]pentan-1-yl}-1,3-benzoxazole-2-carboxamide]	250 to 1000
Cc1noc2ncc(C(=O)NC34CC(NC(=O)COc5ccc(Cl)c(F)c5)(C3)C4)cc12 [Compound 791, N-{3-[2-(4-chloro-3-fluorophenoxy)acetamido]bicyclo[1.1.1]pentan-1-yl}-3-methyl[1,2]oxazolo[5,4-b]pyridine-5-carboxamide]	> 2000
O=C(COc1ccc(Cl)c(Cl)c1)NC12CC(NC(=O)c3ccccc3)(C1)C2 [Compound 521, N-{3-[2-(3,4-dichlorophenoxy)acetamido]bicyclo[1.1.1]pentan-1-yl}benzamide]	50 to 250
CN(C)Cc1ccc(C(=O)NC23CC(NC(=O)COc4ccc(Cl)c(F)c4)(C2)C3)cc1 [Compound 546, N-{3-[2-(4-chloro-3-fluorophenoxy)acetamido]bicyclo[1.1.1]pentan-1-yl}-4-[(dimethylamino)methyl]benzamide]	> 2000
Cc1cc(C(=O)N(C)C23CCC(NC(=O)COc4ccc(Cl)c(F)c4)(CC2)[C@@H](O)C3)on1 [Compound 706, N-{(3S)-4-[2-(4-chloro-3-fluorophenoxy)acetamido]-3-hydroxybicyclo[2.2.2]octan-1-yl}-N,3-dimethyl-1,2-oxazole-5-carboxamide]	< 50
O=C(COc1ccc(Cl)c(F)c1)NC12CC(NC(=O)c3ccc4ncccc4n3)(C1)C2 [Compound 658, N-{3-[2-(4-chloro-3-fluorophenoxy)acetamido]bicyclo[1.1.1]pentan-1-yl}-1,5-naphthyridine-2-carboxamide]	50 to 250

From patent US10913727B2, “Modulators of the integrated stress pathway” (Calico Life Sciences LLC, priority 2016, dated 2021)
